Data reported in US20250134902A1, “DRUG REPURPOSING FOR DELAYED TREATMENT OF ISCHEMIC STROKE” (UNIVESRITY OF NORTH TEXAS HEALTH SCIENCE CENTER, priority 2022, published 2025).
Like-named read-outs stand apart in the source and are kept apart here.

What was measured:
neuronal MN9D cell line = test: BDNF secretion via in situ ELISA; assay type: cell-based; settings: MN9D cells; for Efficacy of BDNF secretion: 24 hrs, normalized to maximal response of 10 μM 4-PPBP, mean ± SEM, asterisk = significantly different from 4-PPBP
Source text: Measuring BDNF secretion via in situ ELISA. […] The in situ ELISA improves on traditional ELISA by seeding BDNF-secreting cells directly into the wells pre-coated with an anti-BDNF primary antibody. BDNF secreted by these cells is immediately captured by the primary antibody, drastically increasing the sensitivity and reproducibility of the ELISA assay. Intact cells are removed […] the addition of the secondary and tertiary antibodies. The amount of BDNF secreted from the neuronal MN9D cells was quantified using an in situ ELISA assay developed using the BDNF EMAX® ImmunoAssay kit (Cat. No. G7611, Promega, Madison, WI). Briefly, a NUNC™ MAXISORP™ flat-bottom, polystyrene, 96-well immunoplate was coated for 48 hrs at 4° C. with an anti-BDNF monoclonal antibody diluted 1:1000 v/v in carbonate buffer containing 25 mM sodium bicarbonate and 25 mM sodium carbonate, pH 9.7. Unbound antibody was removed by washing 5 times with 150 μL of TBST buffer (20 mM Tris-HCl, pH7.6, 150 mM NaCl, and 0.05% (v/v) TWEEN® 20), before blocking non-specific sites first with blocking buffer for 1 hr and then with culture medium for 2 hrs. Cells were seeded at 35,000 cells per well and incubated overnight at 37° C. in a humidified CO2 incubator. The following day, the wells were replaced with fresh culture media containing either experimental compounds or vehicle controls, then incubated for an additional 24 hours. In addition, on the same plate, but in separate wells, BDNF standards were added ranging in concentration from 15.6-250 pg/mL. After 24 hrs incubation with experimental compounds, the media was aspirated and 100 μL of Dulbecco's phosphate saline (D-PBS without Ca^2+ and Mg^2+ supplemented with 5 mM EDTA) was added to each well and incubated for 15 min at 37° C. to promote cell lifting. Cells were then detached from the bottom of wells by triturating in the center and around the edges of the well. After removing all cell debris, the wells were rinsed five times with 150 μL of TBST. The plate was then incubated with 1:500 v/v diluted polyclonal anti-human BDNF antibody for 2 hrs at room temperature. This antibody was removed, and wells were washed five times with 150 μL of TBST, before incubating with 1:200 v/v diluted polyclonal Anti-IgY HRP conjugate for 2 hrs at room temperature. Wells were then washed five times with 150 μL of TBST and the remaining specifically bound polyclonal antibody was detected with the 50 μL colorimetric HRP substrate 3,3′,5,5′-Tetramethylbenzidine (TMB). The reaction was terminated with 50 μL of 1 M HCl and the color intensity was quantified by measuring the absorbance at 450 nm using a FLEXSTATION® 3 plate reader (Molecular Devices, Sunnyvale, CA). […] A one-way ANOVA with a Bonferroni multiple comparisons post-hoc analysis (P<0.05) was applied to determine significant differences between groups.
Further, BDNF secreted from MN9D cells can be detected 24 hours after treatment with S1R ligand, whereas BDNF secreted from the B104 cell line takes 7 days to be detected (Fujimoto, et al., 2012).
An in situ ELISA approach was utilized because of its improved sensitivity related to its rapid capture of secreted BDNF (Balkowiec & Katz, 2000; Dalwadi, et al., 2017). […] Values are averages of 2-10 experiments±SEM, and each experiment was performed in triplicate. Statistical significance at P<0.05 was determined by ANOVA followed by a Bonferroni's post-hoc test and are marked with an asterisk.

rat blood = test: Clotting (streak) assay of thrombotic potential
Procedure: Clotting assays. Thrombotic potential was assessed with trunk blood from donor rats using a protocol modified from Kim et al. (Kim et al., 2010). Oxeladin was compared to whole blood with or without the anticoagulant benzamidine and several other S1R ligands at doses 10× greater than those that stimulate the release of BDNF (Dalwadi et al., 2022; Dalwadi et al., 2017). Blood was rapidly collected into chilled, pre-weighed plastic tubes containing a known quality of EDTA disodium salt (>3.7 mM) electrostatically-coated onto the tube wall. Blood was prevented from coagulating by gently swirling the chilled EDTA-coated tube. The tube was weighed and the volume of collected blood calculated in order to compute the exact concentration of EDTA in the uncoagulated blood sample allowing us to determine which concentration of calcium to add back into the blood to initiate coagulation. Uncoagulated blood samples were stored chilled. The following was be dispensed into NUNC™ MICROWELL™ MiniTrays: 8 μL/well of normal saline containing a concentration of calcium 1.2 mM higher than that of the concentration of EDTA in the blood sample, 1 μL/well of oxeladin, 3 mM benzamidine anticoagulant positive control, or untreated or vehicle negative controls, and 1 μL/well of (EDTA-treated) uncoagulated rat blood. Plates were tilted at a 45° angle at 5, 15, 30, 45 and 60 minutes to observe coagulation (i.e., no streaking) and compared to the controls. Each triplicate well was scored by a treatment-blinded observer as Yes (coagulation, no streaking) or No (no coagulation, streaking). The experiment was repeated with two separate donor rats.
Referring to FIG. 5, the effect on thrombotic activity of test drugs, benzamidine anticoagulant positive control, or untreated or vehicle negative controls on whole blood from donor rats was assessed by tilting treated blood samples at a […] to observe coagulation (i.e., no streaking) between […] (top panel). Blood coagulation was represented by a value between 1 (no streaking, coagulation) and 0 (streaking, less or no coagulation), and values were assigned for each test drug, benzamidine, and untreated and vehicle controls (bottom panel). Quantitative results from these clotting assays, including coagulation half-life, are summarized below in Table 5.

[1] = biological target: T1, human Sigma-1 receptor (S1R) (Homo sapiens, UniProt Q99720); test: Radioligand competition binding at Sigma-1 receptor ([3H]-(+)-pentazocine, MCF-7-hS1R)
T1 construct: expressed in transfected cells
Procedure: Measuring receptor density with radioligand binding.
Measuring the ligand affinities at SIR and S2R receptors by radioligand binding. […] Binding conditions were the same as described previously for the S1R (Schetz, et al., 2007): binding buffer (Tris 50 mM, pH=8.1 at 37° C.), ice-cold wash buffer (Tris 10 mM, pH=8.1 at 0-2° C.), and incubation time (3 hrs at 37° C.) with shaking. Non-specific binding for the S1R and S2R was determined in the presence of 5 μM BD1063 and […] haloperidol, respectively. Following incubation, receptors were collected via rapid filtration through GF/C filters (Brandel, Gaithersburg, MD) followed by washing three times with 3 mL of ice-cold wash buffer. Dried filters were transferred to vials filled with 3.5 ml of scintillation fluid, and the radioactivity was quantified on a liquid scintillation analyzer (TRICARB® 2800TR) from Perkin Elmer (Saint Louis, MO). Mean values from duplicate or triplicate determinations are reported along with their associated standard error of the mean (SEM). Ki values were calculated from IC50 values using the Cheng-Prusoff equation. The concentration of membrane protein was determined using a PIERCE® BCA Protein Assay kit (Life Technologies, Grand Island, NY) following the manufacturer's protocol.
Referring to FIG. 1, the selectivity of potential S1R ligands over S2R was empirically evaluated. Human MCF-7 cells were used as the source of the S2R because these cells express the endogenous S2R (Vilner, John, et al., 1995; Wu & Bowen, 2008) but lack detectable levels of the S1R, allowing unambiguous detection of S2R activity in untransfected cells (Schetz, et al., 2007). MCF-7 cells stably expressing the cloned human S1R were used as the source of S1R.

[2] = displacement of 0.5 nM [3H]-(+)-pentazocine, MCF-7 cells expressing human S1R, average of 2-3 experiments ± SEM, read-out: S1R affinity (Ki)

T1 sequence (Q99720 whole entry): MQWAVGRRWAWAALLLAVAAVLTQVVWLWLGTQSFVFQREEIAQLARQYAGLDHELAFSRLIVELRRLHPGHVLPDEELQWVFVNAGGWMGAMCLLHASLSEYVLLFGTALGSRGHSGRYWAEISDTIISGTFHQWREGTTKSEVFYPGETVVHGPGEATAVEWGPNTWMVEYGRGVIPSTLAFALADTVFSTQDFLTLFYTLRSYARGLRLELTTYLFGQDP

CCC(C/C=C/c1ccccc1)(c1ccccc1)N(C)CC1CC1 (single isomer, unassigned; (+)) [(+)-igmesine]
Efficacy of BDNF secretion (neuronal MN9D cell line; 10 μM): 0.42 ± 0.03
Coagulation Half-Life (λ1/2 ± SD) (rat blood; rat): 19 ± 16 min

c1ccc(CCCCN2CCC(c3ccccc3)CC2)cc1 [4-PPBP]
Efficacy of BDNF secretion (neuronal MN9D cell line; 10 μM): 1
BDNF secreted, maximal stimulation (neuronal MN9D cell line; 10 μM, averaged ± SEM, n=3-10, baseline 75.4±6.9): 128.6 ± 12.8 pg/mL
Coagulation Half-Life (λ1/2 ± SD) (rat blood; 100 μM, rat blood): 11 ± 6 min

CN1CCN(CCc2ccc(Cl)c(Cl)c2)CC1 [BD1063]
reversal of S1R agonist-induced BDNF secretion (neuronal MN9D cell line; 15 nM antagonist): reversed

N=C(N)c1ccccc1 [Benzamidine]
Coagulation Half-Life (λ1/2 ± SD) (rat blood; 3000 μM, rat blood, positive control): >1,440 minutes
Coagulation Half-Life (λ1/2 ± SD) (rat blood; 3000 μM, rat blood, positive control, listed as positive control): > 1,440 minutes

CCC(C(=O)OCCOCCN(CC)CC)c1ccccc1 (stereo not drawn) [Butamirate]
stimulation of BDNF secretion (neuronal MN9D cell line; 10 μM): With the exception of butamirate, all compounds were able to stimulate BDNF release
selective for S1R over S2R [1]: 10 fold
Ki [1, 2]: 0.0172 ± 0.0017 µM
S2R/S1R ratio (Ki S2R/Ki S1R) ([1]; selectivity for S1R over S2R): 10

CCN(CC)CCOCCOC(=O)C1(c2ccccc2)CCCC1 [Carbetapentane]
Efficacy of BDNF secretion (neuronal MN9D cell line; 10 μM): 0.73 ± 0.05
Ki [1, 2]: 0.0198 ± 0.0023 µM
Coagulation Half-Life (λ1/2 ± SD) (rat blood; rat): 23 ± 18 min

OC(CCCN1CCC(O)(c2ccc(Cl)cc2)CC1)c1ccc(F)cc1 (stereo not drawn) [Haloperidol Metabolite II]
Coagulation Half-Life (λ1/2 ± SD) (rat blood; 100 μM, rat blood): 14 ± 11 min

Cc1c(C2CCN(CCc3ccccc3)CC2)noc1-c1ccc(Cl)cc1 [L-741, 742]
Coagulation Half-Life (λ1/2 ± SD) (rat blood; rat): 11 ± 6 min

Clc1ccc(N2CCN(Cc3c[nH]c4ncccc34)CC2)cc1 [L-745, 870]
Coagulation Half-Life (λ1/2 ± SD) (rat blood; rat): 11 ± 6 min

O=C(OCCN1CCOCC1)C1(c2ccccc2)CCCCC1 [PRE-084]
stimulation of BDNF secretion (neuronal MN9D cell line; 10 μM): failed to stimulate BDNF secretion

CC(CN1c2ccccc2Sc2ccccc21)N(C)C (stereo not drawn) [Promethazine]
Efficacy of BDNF secretion (neuronal MN9D cell line; 10 μM): 1.09 ± 0.34
selective for S1R over S2R [1]: 5 fold
Ki ([1]; receptor not given, S1R implied, read-out: affinity): 0.157 µM
effect on thrombosis in blood (rat blood): do not alter thrombosis

COc1ccc(CCN2CCN(CCCc3ccccc3)CC2)cc1OC [SA4503]
Coagulation Half-Life (λ1/2 ± SD) (rat blood; rat): 11 ± 6 min
